For data set [1], the target named is Muscarinic acetylcholine receptor M5 (Homo sapiens) (UniProt P08912). Description: Displacement of [3H]4-DAMP from human recombinant muscarinic M5 receptor at 10 uM incubated for 60 mins by radiometric based scintillation counter assay relative to control. (Displacement assays read how much labelled ligand stays bound in the presence of the test substance.)
Data set [2] has as its target Cholecystokinin receptor type A (Homo sapiens) (UniProt P32238). Description: Displacement of [125I]CCK-8s from human recombinant cholecystokinin A receptor at 10 uM incubated for 60 mins by radiometric based scintillation counter assay relative to control.
Data set [3] addresses Cannabinoid receptor 2 (Homo sapiens) (UniProt P34972). Description: Displacement of [3H]WIN 55212-2 from human recombinant cannabinoid CB2 receptor at 10 uM incubated for 120 mins by radiometric based scintillation counter assay relative to control.
Data set [4] concerns the target Neuromedin-K receptor (Homo sapiens) (UniProt P29371). Description: Displacement of [3H]SR 142801 from human recombinant NK3 tachykinin receptor at 10 uM incubated for 120 mins by radiometric based scintillation counter assay relative to control.
Data set [5] addresses T1, Endothelin-1 receptor (Rattus norvegicus) (UniProt P26684).
T1 sequence (whole entry): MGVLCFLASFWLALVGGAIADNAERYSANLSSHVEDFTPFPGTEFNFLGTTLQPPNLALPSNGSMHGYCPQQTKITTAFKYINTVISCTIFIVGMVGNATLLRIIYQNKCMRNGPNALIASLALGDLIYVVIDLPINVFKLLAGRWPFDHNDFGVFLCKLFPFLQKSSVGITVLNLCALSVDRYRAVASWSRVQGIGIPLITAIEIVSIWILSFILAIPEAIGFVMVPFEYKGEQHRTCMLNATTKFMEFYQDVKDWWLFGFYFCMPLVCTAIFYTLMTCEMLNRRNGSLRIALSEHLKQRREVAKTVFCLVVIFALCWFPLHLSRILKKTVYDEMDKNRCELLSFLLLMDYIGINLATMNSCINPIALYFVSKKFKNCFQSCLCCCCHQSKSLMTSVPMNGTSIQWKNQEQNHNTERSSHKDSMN
Description: In vivo antagonist activity to ETA receptor in endothelin-1 induced Sprague-Dawley rat assessed as inhibition of peak blood pressure administered for 1 to 4 hrs. The settings on record: dose 3-100 mg/kg, route po, time 1-4 hrs. It is filed as functional, organism-based.

In data set [6] the target is T1, Endothelin-1 receptor (Rattus norvegicus). Description: In vivo antagonist activity to ETA receptor in endothelin-1 induced Sprague-Dawley rat assessed as inhibition of transient depressor response at 100 mg/kg, po administered for 4 hrs. The format is functional, organism-based.
The target of the next data set is T2, Endothelin-1 receptor (Rattus norvegicus, UniProt P26684).
T2 sequence (P26684 whole entry): T1 sequence (whole entry)
Description: Antagonist activity to ETA receptor in Sprague-Dawley rat aorta assessed as induction of vessel ring contraction preincubated for 15 mins. The settings on record: read-out: pA2 (converted). It is filed as functional, tissue-based.

The target in data set [7] is Histamine H2 receptor (Homo sapiens) (UniProt P25021). Description: Displacement of [125I]APT from human recombinant histamine H2 receptor at 10 uM incubated for 120 mins by radiometric based scintillation counter assay relative to control.
Chain of Histamine H2 receptor (Homo sapiens) (P25021 whole entry): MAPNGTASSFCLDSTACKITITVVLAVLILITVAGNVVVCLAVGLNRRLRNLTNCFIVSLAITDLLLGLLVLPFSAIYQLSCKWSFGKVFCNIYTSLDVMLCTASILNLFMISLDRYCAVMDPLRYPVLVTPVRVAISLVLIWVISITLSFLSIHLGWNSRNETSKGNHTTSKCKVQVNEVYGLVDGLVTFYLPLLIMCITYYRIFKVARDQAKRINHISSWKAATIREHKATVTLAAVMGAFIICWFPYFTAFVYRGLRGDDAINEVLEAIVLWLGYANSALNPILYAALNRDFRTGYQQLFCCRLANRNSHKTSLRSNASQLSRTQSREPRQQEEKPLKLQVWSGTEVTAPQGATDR
The target in data set [8] is Bombesin receptor (Rattus norvegicus) (UniProt P52500+P24053+Q8K418). Description: Displacement of [125I][Tyr4]bombesin from rat brain Bombesin receptor at 10 uM incubated for 60 mins by radiometric based scintillation counter assay relative to control. It is filed as tissue-based.
Chain of Bombesin receptor (Rattus norvegicus) (P24053 whole entry, looked up): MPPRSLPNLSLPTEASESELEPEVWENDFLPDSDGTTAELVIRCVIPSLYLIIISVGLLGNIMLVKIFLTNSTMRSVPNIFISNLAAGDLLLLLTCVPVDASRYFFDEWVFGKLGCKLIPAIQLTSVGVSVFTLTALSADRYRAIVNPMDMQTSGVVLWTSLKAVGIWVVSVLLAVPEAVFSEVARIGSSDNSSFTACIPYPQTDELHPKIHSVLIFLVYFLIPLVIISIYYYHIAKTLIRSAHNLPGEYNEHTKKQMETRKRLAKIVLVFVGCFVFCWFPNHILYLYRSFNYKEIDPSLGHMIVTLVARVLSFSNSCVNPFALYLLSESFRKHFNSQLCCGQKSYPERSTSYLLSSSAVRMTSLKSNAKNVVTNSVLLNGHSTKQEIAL
Chain of Bombesin receptor (Rattus norvegicus) (P52500 whole entry, looked up): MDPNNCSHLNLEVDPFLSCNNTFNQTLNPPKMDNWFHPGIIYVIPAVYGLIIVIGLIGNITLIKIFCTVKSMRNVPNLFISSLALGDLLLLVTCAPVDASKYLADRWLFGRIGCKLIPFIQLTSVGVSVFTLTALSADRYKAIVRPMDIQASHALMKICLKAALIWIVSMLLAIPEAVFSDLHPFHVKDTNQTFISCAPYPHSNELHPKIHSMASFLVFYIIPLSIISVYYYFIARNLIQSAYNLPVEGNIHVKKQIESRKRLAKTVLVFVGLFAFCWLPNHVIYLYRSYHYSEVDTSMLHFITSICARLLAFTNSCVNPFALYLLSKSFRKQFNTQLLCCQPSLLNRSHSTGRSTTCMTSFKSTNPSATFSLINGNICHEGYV
Chain of Bombesin receptor (Rattus norvegicus) (Q8K418 whole entry, looked up): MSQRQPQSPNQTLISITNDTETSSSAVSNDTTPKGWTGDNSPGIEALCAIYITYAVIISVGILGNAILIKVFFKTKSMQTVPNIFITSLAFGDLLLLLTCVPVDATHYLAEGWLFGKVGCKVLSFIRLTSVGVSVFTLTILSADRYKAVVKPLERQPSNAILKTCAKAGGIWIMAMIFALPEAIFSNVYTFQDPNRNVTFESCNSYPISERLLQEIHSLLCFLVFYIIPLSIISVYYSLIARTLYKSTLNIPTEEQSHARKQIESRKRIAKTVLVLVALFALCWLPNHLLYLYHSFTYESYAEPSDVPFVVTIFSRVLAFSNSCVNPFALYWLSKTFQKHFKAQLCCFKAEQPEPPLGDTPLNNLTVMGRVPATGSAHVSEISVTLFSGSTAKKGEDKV
The species named for another data set is Mus musculus. Description: Displacement of [125I]Tyr11-somatostatin-14 from mouse Somatostatin receptor at 10 uM incubated for 60 mins by radiometric based scintillation counter assay relative to control.
Data set [9] has as its target D(4) dopamine receptor (Homo sapiens) (UniProt P21917). Description: Displacement of [3H]methyl-spiperone from human recombinant dopamine D4 receptor at 10 uM incubated for 60 mins by radiometric based scintillation counter assay relative to control.
The target in data set [10] is Neuropeptide Y receptor type 1 (Homo sapiens) (UniProt P25929). Description: Displacement of [125I]peptide YY from human recombinant Y1 receptor at 10 uM incubated for 120 mins by radiometric based scintillation counter assay relative to control.
Chain of Neuropeptide Y receptor type 1 (Homo sapiens) (P25929 whole entry): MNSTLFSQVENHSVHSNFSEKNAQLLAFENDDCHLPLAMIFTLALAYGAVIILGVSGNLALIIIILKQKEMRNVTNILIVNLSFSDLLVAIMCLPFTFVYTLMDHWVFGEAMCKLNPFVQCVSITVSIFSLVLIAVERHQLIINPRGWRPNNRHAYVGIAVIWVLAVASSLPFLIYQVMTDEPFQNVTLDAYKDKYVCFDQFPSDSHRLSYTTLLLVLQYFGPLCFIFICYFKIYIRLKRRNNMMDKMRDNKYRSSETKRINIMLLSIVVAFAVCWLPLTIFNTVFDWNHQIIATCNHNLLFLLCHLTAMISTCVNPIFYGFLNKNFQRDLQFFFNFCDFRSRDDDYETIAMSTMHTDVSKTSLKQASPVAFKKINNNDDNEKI
The species named for data set [11] is Homo sapiens. Description: Inhibition of human galanin receptor at 10 uM by radioligand binding assay relative to control.
Data set [12] is filed under the species Homo sapiens. Description: Displacement of [125I]hCGRPalpha from calcitonin gene-related peptide (unknown origin) at 10 uM incubated for 90 mins by radiometric based scintillation counter assay relative to control.
Data set [13] is described as follows: Oral bioavailability in Beagle dog at 5 mg/kg administered for 12 hrs by HPLC analysis. The format is ADME, organism-based, Canis lupus familiaris. The settings on record: in vivo.
Data set [14] concerns the target Endothelin receptor type B (Oryctolagus cuniculus) (UniProt Q9N0W7). Description: Antagonist activity to ETB receptor in rabbit pulmonary artery assessed as induction of vessel ring contraction preincubated for 15 mins. The format is functional, tissue-based.
For data set [15], the target named is P2X receptor (Rattus norvegicus) (UniProt P51579+P49653+P51578+Q64663+P47824+P51577+P49654). Description: Displacement of [3H]alpha,beta -MeATP from rat bladder P2X-purinergic receptor at 10 uM incubated for 120 mins by radiometric based scintillation counter assay relative to control. It is filed as protein assay.

1 compound from ChEMBL document CHEMBL5678795 (Eur J Pharmacol, 1999) can be followed below.

The source made the active and inactive calls. The rule behind the calls is not given here.

Chain of Cannabinoid receptor 2 (Homo sapiens) (P34972 whole entry): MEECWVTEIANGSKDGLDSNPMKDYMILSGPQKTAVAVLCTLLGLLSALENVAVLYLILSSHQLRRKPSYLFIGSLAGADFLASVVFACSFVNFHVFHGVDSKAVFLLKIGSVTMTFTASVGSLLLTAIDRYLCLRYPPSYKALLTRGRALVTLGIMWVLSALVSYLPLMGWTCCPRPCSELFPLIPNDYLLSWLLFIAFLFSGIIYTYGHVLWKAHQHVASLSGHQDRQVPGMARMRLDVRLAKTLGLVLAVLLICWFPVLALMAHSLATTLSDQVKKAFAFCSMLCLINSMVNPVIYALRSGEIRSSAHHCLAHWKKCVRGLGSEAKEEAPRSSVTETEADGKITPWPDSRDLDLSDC
Chain of Neuromedin-K receptor (Homo sapiens) (P29371 whole entry): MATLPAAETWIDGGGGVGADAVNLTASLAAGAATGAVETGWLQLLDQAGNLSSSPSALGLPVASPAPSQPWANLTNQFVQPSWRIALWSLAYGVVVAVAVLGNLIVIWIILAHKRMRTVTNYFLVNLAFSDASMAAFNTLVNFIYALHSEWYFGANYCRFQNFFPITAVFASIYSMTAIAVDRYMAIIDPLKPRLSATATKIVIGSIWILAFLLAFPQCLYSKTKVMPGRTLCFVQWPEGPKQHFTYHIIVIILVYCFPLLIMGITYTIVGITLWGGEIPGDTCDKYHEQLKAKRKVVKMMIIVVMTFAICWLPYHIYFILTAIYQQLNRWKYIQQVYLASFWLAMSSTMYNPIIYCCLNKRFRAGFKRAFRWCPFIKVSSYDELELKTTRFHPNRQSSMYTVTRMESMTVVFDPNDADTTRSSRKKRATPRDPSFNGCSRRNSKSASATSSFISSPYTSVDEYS
Chain of Muscarinic acetylcholine receptor M5 (Homo sapiens) (P08912 whole entry): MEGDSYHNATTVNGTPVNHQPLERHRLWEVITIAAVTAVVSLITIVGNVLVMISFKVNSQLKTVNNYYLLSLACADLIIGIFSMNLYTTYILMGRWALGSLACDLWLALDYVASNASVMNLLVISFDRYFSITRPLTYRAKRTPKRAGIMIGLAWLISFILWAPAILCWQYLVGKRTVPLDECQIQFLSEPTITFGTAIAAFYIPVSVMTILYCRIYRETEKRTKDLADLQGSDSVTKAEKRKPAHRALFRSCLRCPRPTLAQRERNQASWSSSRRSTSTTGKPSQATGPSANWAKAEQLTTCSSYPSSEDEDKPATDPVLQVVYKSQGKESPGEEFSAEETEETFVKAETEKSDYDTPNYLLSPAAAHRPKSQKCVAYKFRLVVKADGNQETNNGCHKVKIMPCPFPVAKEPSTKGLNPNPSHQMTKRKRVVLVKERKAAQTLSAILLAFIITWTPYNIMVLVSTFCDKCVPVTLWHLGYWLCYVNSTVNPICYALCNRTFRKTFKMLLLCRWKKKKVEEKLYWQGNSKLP
Chain of Endothelin receptor type B (Oryctolagus cuniculus) (Q9N0W7 whole entry): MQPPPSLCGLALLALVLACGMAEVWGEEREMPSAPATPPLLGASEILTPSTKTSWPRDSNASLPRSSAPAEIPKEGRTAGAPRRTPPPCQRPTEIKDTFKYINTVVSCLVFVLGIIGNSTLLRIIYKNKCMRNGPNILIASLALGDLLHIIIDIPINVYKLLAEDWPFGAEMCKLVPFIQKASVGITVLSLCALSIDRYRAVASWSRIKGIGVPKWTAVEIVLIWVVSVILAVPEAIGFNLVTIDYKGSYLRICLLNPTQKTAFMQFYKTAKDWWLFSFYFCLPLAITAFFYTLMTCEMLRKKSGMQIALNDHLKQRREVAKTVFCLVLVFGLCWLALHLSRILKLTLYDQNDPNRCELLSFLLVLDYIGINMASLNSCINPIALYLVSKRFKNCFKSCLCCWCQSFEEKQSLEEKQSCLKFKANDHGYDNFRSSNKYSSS
Chain of Cholecystokinin receptor type A (Homo sapiens) (P32238 whole entry): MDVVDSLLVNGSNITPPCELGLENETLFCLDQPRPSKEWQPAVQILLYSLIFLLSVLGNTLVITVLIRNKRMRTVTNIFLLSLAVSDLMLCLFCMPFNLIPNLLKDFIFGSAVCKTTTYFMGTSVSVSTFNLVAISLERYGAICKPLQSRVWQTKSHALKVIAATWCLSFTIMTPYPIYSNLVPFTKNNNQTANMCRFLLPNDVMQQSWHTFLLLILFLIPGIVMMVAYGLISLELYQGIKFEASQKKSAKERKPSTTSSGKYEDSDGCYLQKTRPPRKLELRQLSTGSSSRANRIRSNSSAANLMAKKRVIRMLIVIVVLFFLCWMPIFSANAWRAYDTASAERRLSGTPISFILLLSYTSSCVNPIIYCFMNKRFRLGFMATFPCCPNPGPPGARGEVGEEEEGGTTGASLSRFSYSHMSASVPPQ
Chain of D(4) dopamine receptor (Homo sapiens) (P21917 whole entry): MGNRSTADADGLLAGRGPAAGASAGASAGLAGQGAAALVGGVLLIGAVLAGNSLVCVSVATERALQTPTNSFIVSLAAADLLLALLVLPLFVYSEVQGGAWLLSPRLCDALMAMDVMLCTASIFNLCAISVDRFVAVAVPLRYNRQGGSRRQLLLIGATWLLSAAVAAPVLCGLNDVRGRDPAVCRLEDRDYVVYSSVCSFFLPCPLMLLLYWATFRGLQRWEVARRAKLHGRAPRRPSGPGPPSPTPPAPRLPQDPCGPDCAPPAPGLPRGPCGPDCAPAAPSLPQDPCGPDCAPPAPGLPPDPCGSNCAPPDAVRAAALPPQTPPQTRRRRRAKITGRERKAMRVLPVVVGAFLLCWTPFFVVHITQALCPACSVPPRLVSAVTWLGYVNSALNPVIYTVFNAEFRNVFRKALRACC

As for `CCCCN(CCCC)C(=O)CN1[C@H](c2cc(OC)c3c(c2)OCO3)C[C@@H](C(=O)O)[C@@H]1CC(C)(C)CCC`, the inhibition was below 10% in [1]; below 10% in data set [2]; 11% in [3]; below 10% in data set [4]; below 10% in data set [7]; below 10% in data set [8]. Besides, the inhibition in the data set listed under Mus musculus is below 10%; in data set [9], below 10%; in [10], below 10%; in the data set filed under Homo sapiens [11], below 10%; in the data set filed under Homo sapiens [12] it was below 10%; in [15], 37%. Moreover, in data set [5], the Activity result is “Dose-Dependent Effect”. Besides, the outcome in [6] was Active. Also, the Kb at Endothelin-1 receptor is 5.13 nM. For the same compound, the bioavailability in [13] was 19.9%. Moreover, the outcome in [14] was inactive.

For orientation: inhibition means the share of the control response that was lost under treatment. For orientation: bioavailability means the share of a dose that reaches the circulation, judged against a reference dose that is usually intravenous. A higher bioavailability goes with good availability.
